Assay results from US10538555B2, “Macrocyclic inhibitors of the PD-1/PD-L1 and CD80(B7-1)/PD-L1 protein/protein interactions” (BRISTOL-MYERS SQUIBB COMPANY, priority 2014, dated 2020).
pIC50: −log10 of the molar value. Where a SMILES comes first, the peptide text is derived from it. Bridges are numbered along the chain shown (N, C = ends). [ ]: non-standard residue; d: D form. Trp(1-CH2COOH) = N[C@@H](Cc1cn(CC(=O)O)c2ccccc12)C(=O)O; NMeW = CN[C@@H](Cc1c[nH]c2ccccc12)C(=O)O; Hyp = O=C(O)[C@@H]1C[C@@H](O)CN1; NMeNle = CCCC[C@H](NC)C(=O)O; NMeA = CN[C@@H](C)C(=O)O; Dab = NCC[C@H](N)C(=O)O; Dap = NC[C@H](N)C(=O)O

Molecular target: T1, Human PD-L1/PD-1 (Homo sapiens, UniProt Q9NZQ7)
T1 construct: TVMV protease cleavage site (C); made in house; host or cells: HEK293T cells
T1 sequence (Q9NZQ7 with tags, fused parts or gaps): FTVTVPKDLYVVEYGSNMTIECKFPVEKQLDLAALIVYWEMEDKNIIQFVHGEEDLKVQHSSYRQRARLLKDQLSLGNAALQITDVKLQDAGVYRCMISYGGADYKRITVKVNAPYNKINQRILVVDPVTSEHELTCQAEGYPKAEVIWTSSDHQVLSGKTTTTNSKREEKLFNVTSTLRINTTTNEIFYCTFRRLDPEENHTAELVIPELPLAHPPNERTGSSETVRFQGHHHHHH
Experiment: HTRF Human PD-L1/PD-1 binding assay (PD-1-Ig/PD-L1-His)
Details: PD-L1-His 10 nM, PD-1-Ig 20 nM; class symbol; read-out: HTRF Human PD-L1/PD-1 Binding Assay IC50 Range
In short: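 Step 1: compound with PD-L1-His (10 nM final), 15 min. Step 2: PD-1-Ig (20 nM final), 15 min. Step 3: Eu-cryptate anti-Ig (1 nM) plus APC anti-His (20 nM), 30 min equilibration. Signal taken as 665 nm/620 nm ratio.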

SMILES | pIC50
CCCC[C@H]1C(=O)N(C)[C@@H](CCCC)C(=O)N[C@@H](CN)C(=O)N[C@H](C(=O)NCC(N)=O)CSCC(=O)N[C@@H](Cc2ccc(O)cc2)C(=O)N(C)[C@@H](C)C(=O)N[C@@H](CC(=O)O)C(=O)N2CCC[C@H]2C(=O)N[C@@H](CN)C(=O)N[C@@H](CC(C)C)C(=O)N2C[C@H](O)C[C@H]2C(=O)N[C@@H](Cc2c[nH]c3ccccc23)C(=O)N[C@@H](CO)C(=O)N[C@@H](Cc2cn(CC(=O)O)c3ccccc23)C(=O)N1C [Example 5227] ({CH2CO}-Y[NMeA]DP[Dap]L[Hyp]WS[Trp(1-CH2COOH)][NMeNle][NMeNle][Dap]CG-NH2; thioether N-14) | 8.00 to 9.00
CCCC[C@H]1C(=O)N(C)[C@@H](CCCC)C(=O)N[C@@H](CN)C(=O)N[C@H](C(=O)NCC(N)=O)CSCC(=O)N[C@@H](Cc2ccc(O)cc2)C(=O)N(C)[C@@H](C)C(=O)N[C@@H](CC(N)=O)C(=O)N2CCC[C@H]2C(=O)N[C@@H](CN)C(=O)N[C@@H](CCC(=O)O)C(=O)N2C[C@H](O)C[C@H]2C(=O)N[C@@H](Cc2c[nH]c3ccccc23)C(=O)N[C@@H](CO)C(=O)N[C@@H](Cc2cn(CC(=O)O)c3ccccc23)C(=O)N1C [Example 5231] ({CH2CO}-Y[NMeA]NP[Dap]E[Hyp]WS[Trp(1-CH2COOH)][NMeNle][NMeNle][Dap]CG-NH2; thioether N-14) | 8.00 to 9.00
CCCC[C@H]1C(=O)N(C)[C@@H](CCCC)C(=O)N[C@@H](CCC(=O)O)C(=O)N[C@H](C(=O)NCC(N)=O)CSCC(=O)N[C@@H](Cc2ccc(O)cc2)C(=O)N(C)[C@@H](C)C(=O)N[C@@H](CC(N)=O)C(=O)N2CCC[C@H]2C(=O)N[C@@H](CN)C(=O)N[C@@H](CC(C)C)C(=O)N2C[C@H](O)C[C@H]2C(=O)N[C@@H](Cc2c[nH]c3ccccc23)C(=O)N[C@@H](CCC(=O)O)C(=O)N[C@@H](Cc2c[nH]c3ccccc23)C(=O)N1C [Example 5232] ({CH2CO}-Y[NMeA]NP[Dap]L[Hyp]WEW[NMeNle][NMeNle]ECG-NH2; thioether N-14) | 8.00 to 9.00

More lines, now with the values ahead:

pIC50 | SMILES
8.00 to 9.00 | CCCC[C@H]1C(=O)N(C)[C@@H](CCCC)C(=O)N[C@@H](CC(C)C)C(=O)N[C@H](C(=O)NCC(N)=O)CSCC(=O)N[C@@H](Cc2ccc(O)cc2)C(=O)N(C)[C@@H](C)C(=O)N[C@@H](CC(N)=O)C(=O)N2CCC[C@H]2C(=O)N[C@@H](Cc2c[nH]cn2)C(=O)N[C@@H](CCCCNC(C)=O)C(=O)N2C[C@H](O)C[C@H]2C(=O)N[C@@H](Cc2c[nH]c3ccccc23)C(=O)N[C@@H](CCN)C(=O)N[C@@H](Cc2c[nH]c3ccccc23)C(=O)N1C [Example 5228] ({CH2CO}-Y[NMeA]NPHK(Ac)[Hyp]W[Dab]W[NMeNle][NMeNle]LCG-NH2; thioether N-14)
8.00 to 9.00 | CCCC[C@H]1C(=O)N[C@@H](CN)C(=O)N[C@H](C(=O)NCC(N)=O)CSCC(=O)N[C@@H](Cc2ccc(O)cc2)C(=O)N(C)[C@@H](C)C(=O)N[C@@H](CC(=O)O)C(=O)N2CCC[C@H]2C(=O)N[C@@H](Cc2c[nH]cn2)C(=O)N[C@@H](CCC(=O)O)C(=O)N2C[C@H](O)C[C@H]2C(=O)N[C@@H](Cc2c[nH]c3ccccc23)C(=O)N[C@@H](CCN)C(=O)N[C@@H](Cc2c[nH]c3ccccc23)C(=O)N(C)[C@@H](Cc2c[nH]c3ccccc23)C(=O)N1C [Example 5229] ({CH2CO}-Y[NMeA]DPHE[Hyp]W[Dab]W[NMeW][NMeNle][Dap]CG-NH2; thioether N-14)
8.00 to 9.00 | CCCC[C@H]1C(=O)N(C)[C@@H](CCCC)C(=O)N[C@@H](CCC(=O)O)C(=O)N[C@H](C(=O)NCC(N)=O)CSCC(=O)N[C@@H](Cc2ccc(O)cc2)C(=O)N(C)[C@@H](C)C(=O)N[C@@H](CC(=O)O)C(=O)N2CCC[C@H]2C(=O)N[C@@H](Cc2cnc[nH]2)C(=O)N[C@@H](CCC(=O)O)C(=O)N2C[C@H](O)C[C@H]2C(=O)N[C@@H](Cc2c[nH]c3ccccc23)C(=O)N[C@@H](CO)C(=O)N[C@@H](Cc2c[nH]c3ccccc23)C(=O)N1C [Example 5230] ({CH2CO}-Y[NMeA]DPHE[Hyp]WSW[NMeNle][NMeNle]ECG-NH2; thioether N-14)
